Values joined by “and” are separate entries in the source; they are usually repeats but may differ in a detail not shown here. Equal values may be shown once.

Drawing on patent US12012394B2, “Alpha-synuclein ligands” (Washington University, priority 2018, dated 2024), this text covers Kd for one compound.

One test has as its target Aβ fibrils (Homo sapiens (Human), UniProt P05067). Briefly: Homologous competition radioligand binding assay, Aβ fibrils. The following applies: 150 nM Aβ fibrils. The method, then: Synthetic Aβ1-42 peptide (1 mg) (Bachem, Torrance, CA) was first dissolved in 50 μl DMSO. An additional 925 μl of mQ-H2O was added. Finally, 25 μl 1M Tris-HCl pH 7.6 was added to bring the final peptide concentration to 222 μM (1 mg/ml). The dissolved peptide was incubated for 30 h at 37° C. with shaking at 1000 rpm in an Eppendorf Thermomixer. Fibril formation was confirmed by ThioT fluorescence. To determine the concentration of fibrils, the fibril reaction mix was centrifuged at 15,000×g for 15 min to separate fibrils from monomer. The concentration of Aβ monomer in the supernatant was determined in a BCA protein assay using a BSA standard curve that contained DMSO at a percentage equivalent to the samples. […]
These direct binding assays used a fixed concentration of either fibrils or PD/AD tissue and the radioligand (e.g., [^18F]28) and varying concentration ranges of corresponding homologous non-radiolabeled standard reference compound. […] Reactions were incubated at 37° C. for 1 h before quantifying bound radioligand. […] Filters containing the bound ligand were mixed with 150 μL of Optiphase Supermix scintillation cocktail (PerkinElmer) and counted immediately. […] The dissociation constant (Kd) and the maximal number of binding sites (Bmax) values were determined by fitting the data to the equation. […]

A further test has as its target Banner seeded fibrils (Homo sapiens (Human), UniProt P37840). Briefly: Saturation binding of [125I]TZ61-84 to Banner seeded fibrils. The following applies: 100 nM Banner seeded fibrils, saturation binding. The method, then:
The binding efficacy (Kd) of TZ-61-84 was determined using a modified protocol. Specifically, saturation plots of radiolabeled [^125I]TZ61-84 were obtained measuring total and nonspecific binding of TZ61-84 to 100 nM Banner seeded fibrils. The results are depicted in FIG. 15B-15D and that TZ61-84 has a high binding affinity to α-synuclein (Kd<1 nM).

Sequence of Aβ fibrils (P05067 672-713): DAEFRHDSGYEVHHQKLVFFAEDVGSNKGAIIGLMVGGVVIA

With `COc1ccc2nc(-c3csc(C=O)c3)ccc2c1` [TZ55-81], the dissociation constant Kd on Aβ fibrils was 12 nM; on Banner seeded fibrils it was 0.34 nM and 0.5 nM.

A word on the Kd: it is the concentration at which binding is half-saturated.
